Data as given in patent publication US20200263231A1, “Fluorogenic dyes for high sensitivity DNA detection” (LIFE TECHNOLOGIES CORPORATION, priority 2016, published 2020).

Columns and labels:
dsDNA versus ssDNA = test: In vitro selectivity dsDNA versus ssDNA; type: binding
Method: Six compounds (2, 34, 35, 41, 42, and 48) were characterized in in vitro selectivity experiments for double-stranded DNA (dsDNA) versus single-stranded DNA (ssDNA). These compounds were compared against comparative compounds R^1 and R^2.
For each individual compound, the dsDNA and ssDNA fluorescence emission at 10 ng/μL was compared to evaluate in vitro selectivity for dsDNA/ssDNA, as shown in FIG. 4.
Further in vitro selectivity experiments for double-stranded DNA (dsDNA) versus single-stranded DNA (ssDNA) were performed using the methods outlined in Example 3 to compare compounds 2, 34, 41, 42, and 48 to comparative compounds R1 and R2.
For each individual compound, the dsDNA and ssDNA fluorescence emission at 10 ng/μL was calculated to estimate in vitro selectivity, as shown in FIG. 7.

dsDNA = test: Microplate fluorescence when bound to dsDNA; type: binding; settings: 500 ng/mL dsDNA
Method: Compounds were tested in triplicate for fluorescence enhancement when bound to dsDNA. 190 μL of 1 μM compound in 1× Tris-EDTA, pH 7.5, 0.01% CHAPS was added to 10 μL of 4 different concentrations of dsDNA (0, 25 ng/mL, 200 ng/mL, and 500 ng/mL) in wells of 96 well Costar black, clear bottom microplates. Plates were read on a SpectraFluor multifunction microplate reader (Tecan) at 491 nm excitation and 520 nm emission.
Compounds were tested for fluorescence enhancement when bound to dsDNA as described in Example 3. Fluorescence data with dsDNA are shown in FIG. 5 for the different tested compounds.

ssDNA = test: Microplate fluorescence when bound to ssDNA; type: binding; settings: for Ratio to R1, fluorescent emission with ssDNA / fluorescent emission with ssDNA: 500 ng/mL ssDNA; for ssDNA emission: text says 10 ng/μL
Method: The compounds from FIG. 1 were also characterized with respect to their fluorescence enhancement when bound to ssDNA. The compounds from FIG. 1, R1 and R2 were tested in triplicate. 190 μL of 1 μM compound in 1× Tris-EDTA pH7.5, 0.01% CHAPS was added to 10 μL of 4 different concentrations of ssDNA in wells of 96 well Costar black, clear bottom microplates. Plates were read on a SpectraFluor multifunction microplate reader (Tecan) at 491 nm excitation and 520 nm emission. Fluorescence data with ssDNA are shown in FIG. 3 for the different tested compounds.
Next, the compounds were compared for their fluorescence enhancement when bound to ssDNA as described in Example 1. Fluorescence data with ssDNA are shown in FIG. 6 for the different tested compounds.

[1] = UV/VIS absorption spectra; type: physicochemical; settings: 10 μM compound in 50 mM potassium phosphate buffer (pH 7.0)
Method: The UV/VIS absorption spectra were obtained with 10 μM compound solution in 50 mM potassium phosphate buffer (pH 7.0) in a final volume of 3 mL. Measurements were carried out using a Lambda 245 spectrophotometer from Perkin Elmer.

calf thymus DNA = test: Fluorescence emission and enhancement of compounds bound to calf thymus DNA; type: binding; settings: 0.8 μM compound with 500 ng/ml calf thymus DNA in TE buffer; for Emission Max: excited at 488 nm; for Fluorescence Enhancement: emission area 500-715 nm compared to compound 1, defined as 1000-fold
Method: Compounds 1-65 were prepared and their fluorescence absorption and emission characteristics were measured. Intrinsic fluorescence of the compounds only (without DNA) was negligible. Emission spectra for the compounds bound to dsDNA were obtained by incubating 0.8 μM compound with 500 ng/ml calf thymus DNA in TE buffer (10 mM Tris-HCl, pH 7.5, 1 mM EDTA) in a final volume of 3 ml. Measurements were made using PerkinElmer LS 55 (F-11) Fluorescence spectrometer. Samples were excited at 488 nm and fluorescence emission was measured with emission slit widths of 2.5 nm. Absorption maxima were determined according to standard techniques.
Fluorescence enhancement measurements of the compounds were obtained by incubating 0.8 μM compound with 500 ng/ml calf thymus DNA with compounds at a final concentration of 0.8 μM in TE buffer. Compound 1 was used as an internal standard to control for variability (e.g., in excitation light intensity). The area-under-curve of fluorescence emission spectra from 500 nm to 715 nm was calculated, and compared to that of compound 1, which was defined as having 1000-fold fluorescence enhancement relative to fluorescence of the compound alone.

[2] = Example 3, Table 2, 1 μM compound, 491 nm excitation, 520 nm emission
[3] = Example 3, Table 3, 1 μM compound, 491 nm excitation, 520 nm emission
[4] = Example 3, Table 4, FIG. 4 says 500 ng/mL
[5] = Example 4, Table 7, FIG. 7 says 500 ng/mL

COc1ccc2c(c1)N(c1ccccc1)C(N(CCC[N+](C)(C)C)CCC[N+](C)(C)C)=CC2=Cc1sc2ccccc2[n+]1C.I [Compound R2, reference compound]
ratio of dsDNA emission versus ssDNA emission (dsDNA versus ssDNA; Example 3, Table 4): 5.2
ratio of dsDNA emission versus ssDNA emission (dsDNA versus ssDNA; Example 4, Table 7): 6.6
Ratio to R1, fluorescent emission with dsDNA (dsDNA; Example 3, Table 2): 1.59
fluorescent emission with dsDNA (dsDNA; [2]): 8627
Ratio to R1, fluorescent emission with dsDNA (dsDNA; Example 4, Table 5): 1.7
fluorescent emission with dsDNA (dsDNA; Example 4, Table 5): 9941
Ratio to R1, fluorescent emission with ssDNA (ssDNA; Example 3, Table 3): 1.5
fluorescent emission with ssDNA (ssDNA; [3]): 1669
ssDNA emission (ssDNA; [4]): 1669
fluorescent emission with ssDNA (ssDNA; Example 4, Table 6): 1512
ssDNA emission (ssDNA; [5]): 1512

CCN(CCC[N+](C)(C)Cc1cccc(OC)c1)C1=CC(=Cc2sc3ccccc3[n+]2C)c2ccc(OC)cc2N1c1ccccc1.[Br-].[I-] [Compound 54]
Absorbance Max [1]: 490 nm
Emission Max (calf thymus DNA): 517 nm
Fluorescence Enhancement (calf thymus DNA): 1008 fold

CCN(CCC[N+](C)(C)CC)C1=C/C(=C/c2sc3ccccc3[n+]2C)c2ccccc2N1c1ccccc1.[I-].[I-] [Compound 17]
Absorbance Max [1]: 496 nm
Emission Max (calf thymus DNA): 523 nm
Fluorescence Enhancement (calf thymus DNA): 865 fold

CCCN(CCC[N+](C)(C)Cc1cccc(OC)c1)C1=C/C(=C/c2sc3ccccc3[n+]2C)c2ccccc2N1c1ccccc1.[Br-].[Cl-] [Compound 7]
Absorbance Max [1]: 502 nm
Emission Max (calf thymus DNA): 522 nm
Fluorescence Enhancement (calf thymus DNA): 978 fold

CCCCN(CCCN(C)C)C1=C/C(=C/c2sc3ccccc3[n+]2C)c2ccccc2N1c1ccccc1.[I-] [Compound 8]
Absorbance Max [1]: 495 nm
Emission Max (calf thymus DNA): 525 nm
Fluorescence Enhancement (calf thymus DNA): 946 fold

CCCN(CCC[N+](C)(C)Cc1cccc(OC)c1)C1=CC(=Cc2sc3ccccc3[n+]2C)c2ccc(OC)cc2N1c1ccccc1.[Br-].[I-] [Compound 47]
Absorbance Max [1]: 495 nm
Emission Max (calf thymus DNA): 518 nm
Fluorescence Enhancement (calf thymus DNA): 1038 fold

CCN(CCCN(C)C)C1=C/C(=C/c2sc3ccccc3[n+]2C)c2ccccc2N1c1ccccc1.[I-] [Compound 15]
Absorbance Max [1]: 495 nm
Emission Max (calf thymus DNA): 524 nm
Fluorescence Enhancement (calf thymus DNA): 864 fold

CCN(CCC[N+](C)(C)CC)C1=CC(=Cc2sc3ccccc3[n+]2C)c2ccc(OC)cc2N1c1ccccc1.[I-].[I-] [Compound 50]
Absorbance Max [1]: 490 nm
Emission Max (calf thymus DNA): 519 nm
Fluorescence Enhancement (calf thymus DNA): 1020 fold

CCCCN(CCC[N+](C)(C)CCC)C1=CC(=Cc2sc3ccccc3[n+]2C)c2ccc(OC)cc2N1c1ccccc1.[I-].[I-] [Compound 37]
Absorbance Max [1]: 489 nm
Emission Max (calf thymus DNA): 519 nm
Fluorescence Enhancement (calf thymus DNA): 1089 fold

CN(CCC[N+](C)(C)C)C1=C/C(=C/c2sc3ccccc3[n+]2C)c2ccccc2N1c1ccccc1.[I-].[I-] [Compound 22]
Absorbance Max [1]: 497 nm
Emission Max (calf thymus DNA): 520 nm
Fluorescence Enhancement (calf thymus DNA): 639 fold

CCC[N+](C)(C)CCN(CC)C1=C/C(=C/c2sc3ccccc3[n+]2C)c2ccccc2N1c1ccccc1.[I-].[I-] [Compound 31]
Absorbance Max [1]: 506 nm
Emission Max (calf thymus DNA): 527 nm
Fluorescence Enhancement (calf thymus DNA): 642 fold

CCN(CC[N+](C)(C)CC)C1=C/C(=C/c2sc3ccccc3[n+]2C)c2ccccc2N1c1ccccc1.[Cl-].[I-] [Compound 30]
Absorbance Max [1]: 506 nm
Emission Max (calf thymus DNA): 526 nm
Fluorescence Enhancement (calf thymus DNA): 638 fold

CCN(CC[N+](C)(C)Cc1cccc(OC)c1)C1=C/C(=C/c2sc3ccccc3[n+]2C)c2ccccc2N1c1ccccc1.[Br-].[I-] [Compound 33]
Absorbance Max [1]: 507 nm
Emission Max (calf thymus DNA): 526 nm
Fluorescence Enhancement (calf thymus DNA): 652 fold

CN(C)CCCN(CCCN(C)C)C1=CC(=Cc2sc3ccccc3[n+]2C)c2ccccc2N1c1ccccc1.[I-] [Compound R1, reference compound]
ratio of dsDNA emission versus ssDNA emission (dsDNA versus ssDNA; Example 3, Table 4): 5.0
ratio of dsDNA emission versus ssDNA emission (dsDNA versus ssDNA; Example 4, Table 7): 5.5
Ratio to R1, fluorescent emission with dsDNA (dsDNA; Example 3, Table 2): 1.00
fluorescent emission with dsDNA (dsDNA; [2]): 5441
Ratio to R1, fluorescent emission with dsDNA (dsDNA; Example 4, Table 5): 1.0
fluorescent emission with dsDNA (dsDNA; Example 4, Table 5): 5887
Ratio to R1, fluorescent emission with ssDNA (ssDNA; Example 3, Table 3): 1.0
fluorescent emission with ssDNA (ssDNA; [3]): 1081
ssDNA emission (ssDNA; [4]): 1081
fluorescent emission with ssDNA (ssDNA; Example 4, Table 6): 1080
ssDNA emission (ssDNA; [5]): 1080

CCN(CCC[N+](C)(C)CCO)C1=C/C(=C/c2sc3ccccc3[n+]2C)c2ccccc2N1c1ccccc1.[I-].[I-] [Compound 18]
Absorbance Max [1]: 496 nm
Emission Max (calf thymus DNA): 524 nm
Fluorescence Enhancement (calf thymus DNA): 882 fold

CN(CCC[N+](C)(C)Cc1ccccc1)C1=C/C(=C/c2sc3ccccc3[n+]2C)c2ccccc2N1c1ccccc1.[I-].[I-] [Compound 26]
Absorbance Max [1]: 498 nm
Emission Max (calf thymus DNA): 521 nm
Fluorescence Enhancement (calf thymus DNA): 653 fold

CN(C)CCCN(C)C1=C/C(=C/c2sc3ccccc3[n+]2C)c2ccccc2N1c1ccccc1.[I-] [Compound 21]
Absorbance Max [1]: 491 nm
Emission Max (calf thymus DNA): 522 nm
Fluorescence Enhancement (calf thymus DNA): 639 fold

CCN(CC[N+](C)(C)CCO)C1=C/C(=C\c2sc3ccccc3[n+]2C)c2ccc(OC)cc2N1c1ccccc1.[I-].[I-] [Compound 59]
Absorbance Max [1]: 498 nm
Emission Max (calf thymus DNA): 520 nm
Fluorescence Enhancement (calf thymus DNA): 863 fold

CCC[N+](C)(C)CCCN(CC)C1=CC(=Cc2sc3ccccc3[n+]2C)c2ccc(OC)cc2N1c1ccccc1.[I-].[I-] [Compound 51]
Absorbance Max [1]: 490 nm
Emission Max (calf thymus DNA): 520 nm
Fluorescence Enhancement (calf thymus DNA): 1016 fold

CCN(CCC[N+](C)(C)CCO)C1=C/C(=C/c2sc3ccccc3[n+]2C)c2ccc(OC)cc2N1c1ccccc1 [Compound 52]
Absorbance Max [1]: 490 nm
Emission Max (calf thymus DNA): 519 nm
Fluorescence Enhancement (calf thymus DNA): 1031 fold

CCC[N+](C)(C)CCCN(C)C1=C/C(=C/c2sc3ccccc3[n+]2C)c2ccccc2N1c1ccccc1.[I-].[I-] [Compound 24]
Absorbance Max [1]: 497 nm
Emission Max (calf thymus DNA): 522 nm
Fluorescence Enhancement (calf thymus DNA): 630 fold

CCN(CCC[N+](C)(C)Cc1ccccc1)C1=C/C(=C/c2sc3ccccc3[n+]2C)c2ccc(OC)cc2N1c1ccccc1.[Br-].[I-] [Compound 53]
Absorbance Max [1]: 490 nm
Emission Max (calf thymus DNA): 520 nm
Fluorescence Enhancement (calf thymus DNA): 1011 fold

CCCCN(CCC[N+](C)(C)CC)C1=CC(=Cc2sc3ccccc3[n+]2C)c2ccc(OC)cc2N1c1ccccc1.[I-].[I-] [Compound 36]
Absorbance Max [1]: 489 nm
Emission Max (calf thymus DNA): 521 nm
Fluorescence Enhancement (calf thymus DNA): 1071 fold

CCCN(CCC[N+](C)(C)Cc1ccccc1)C1=C/C(=C/c2sc3ccccc3[n+]2C)c2ccc(OC)cc2N1c1ccccc1.[Br-].[I-] [Compound 46]
Absorbance Max [1]: 494 nm
Emission Max (calf thymus DNA): 520 nm
Fluorescence Enhancement (calf thymus DNA): 931 fold
